# Laboratory results published in publication PMC7139549, “TLD1433 Photosensitizer Inhibits Conjunctival Melanoma Cells in Zebrafish Ectopic and Orthotopic Tumour Models” (Cancers, 2020).
# Like-named read-outs stand apart in the source and are kept apart here.
# Test system: OMM1 uveal melanoma cell line
# Assay: SRB cell viability assay, OMM1
# Assay type: cell-based, Human
# Protocol: TLD1433 is known to generate reactive oxygen species (ROS) with high quantum efficacy in many cancer cell lines. However, there is no report of the in vitro toxicity of this compound in eye melanoma (UM) cell lines. We determined the cell viability of three conjunctival melanoma cell lines (CRMM1, CRMM2 and CM2005.1), and three uveal melanoma cell lines (OMM1, OMM2.5, MEL270) in the presence of TLD1433, both in the dark or under green light irradiation (21 mW/cm^2, 19 J/cm^2, 520 nm, 15 min), and compared this viability to epidermoid carcinoma A431 and cutaneous melanoma A375 cell lines under the same conditions. The protocol used was based on previous work from the Bonnet group, and differed slightly from recommendations from McFarland et al.. […] The effective concentration (EC50) values, i.e., the concentration required to reduce cell viability by 50% compared to untreated wells, were assessed by fitting the dose-response curves with a Hill equation. The phototoxicity index (PI), defined as the ratio of the dark EC50 to the light EC50, was also calculated and represents the amplification of TLD1433 activity with a light trigger. […]
# Figure 2 Cell viability after TLD1433 treatment of eight tumour cell lines (CRMM1, CRMM2, CM2005.1, OMM1, OMM2.5, MEL270, A431, A375). […] The absorbance of Sulforhodamine B in solution was measured at 520 nm. […]
# At day 0, cells were detached using 1mL of trypsin, resuspended in 4 mL of media and transferred to a 15 mL corning falcon tube. Cells were counted using trypan blue and BioRad® TC20™ automated cell counter (Figure 11). Dilutions of 6000 (CRMM1), 6000 (CRMM2), 8000 (CM2005.1), 6000 (OMM1), 6000 (OMM2.5), 6000 (MEL270) 8000 (A431), and 4000 (A375) cells/well were calculated from each cell suspension at a final volume of 6 mL using the following formula: Vc=(Vt×10C)/Lc where Vt = total volume of solution, C = number of cells per well/per 100 μL and Lc = live cells count (cells/mL). […] Next day, the dye was dissolved using Tri-base (0.25%) and absorbance of SRB at 510 nm was recorded from each well using a Tecan plate reader. […]
smiles,measurement,setting,value
Cc1ccnc(-c2cc(C)ccn2)c1.Cc1ccnc(-c2cc(C)ccn2)c1.[Cl-].[Cl-].[Ru+2].c1csc(-c2ccc(-c3ccc(-c4nc5c6cccnc6c6ncccc6c5[nH]4)s3)s2)c1 [TLD1433],EC50,"OMM1, dark, 24 h treatment, SRB, read-out: EC50, dark",1400 nM
same,EC50,"OMM1, green light 520 nm, 15 min, 21 mW/cm^2, 19 J.cm^−2, DLI 24 h, read-out: EC50,light",14 nM
same,PI (photo index),"OMM1, ratio of dark and light EC50, 19 J.cm^−2 green light",100
